We go through 14 compounds from article PMC6754500, “Ultra-long-acting tunable biodegradable and removable controlled release implants for drug delivery” (Nature Communications, 2019).

≈ marks a conversion by molar mass, not a printed value. Where a name gives a salt, the structure may show the parent alone. Read-outs that look alike come from different tables or passages of the source. Where only a bound is given, the exact number is not on record here.

The test system of one series is HIV-1. The following applies: cited from earlier work; for IC90: Supplementary Table 1.
Series [1] in a line: Saturation concentration (solubility) of drugs in NMP. It counts as physicochemical. As to conditions: quantified by HPLC; for solubility at 24 h: 40 °C, organic solvent or mixture, thermodynamic from solid. How it is done:
The saturation concentration of a panel of fourteen (14) antiretroviral drugs in NMP was determined. For each drug, 100 mg was weighed into individual vials and 100 mg of NMP was added to each vial. The mixture was stirred at 40 °C for 24 h. […] Sample aliquots (1–2 mg, n = 4) were collected from the saturated supernatant and diluted with acetonitrile (ACN). Drug concentration in the saturated aliquots was determined by HPLC analysis.

The conditions of series [2]: cited from earlier work; for pKa: Supplementary Table 1; for LogP: log of drug partition coefficient, ref drugbank.ca.
The nature of series [3]: Saturation solubility in PBS with or without 2% solutol. The class given is physicochemical. The following applies: for solubility: HPLC.
The test system of a further series is HIV-1JR-CSF. The series is described as follows: In vitro HIV-1 inhibition in TZM-bl cells. It counts as cell-based. The following applies: Human immunodeficiency virus 1, read-out: Effective concentration required to inhibit virus replication by 50% (IC50), DTG eluted (24 h in PBS) from solidified DTG-ISFI stored 6 months at 25 °C.
The conditions of series [4]: pH 7; cited from earlier work.

Description for HIV-1JR-CSF: DTG-ISFI formulation was stored for 6 months at 25 °C and then solidified in PBS. The concentration of DTG eluted from the solidified implant after 24 h incubation in PBS was determined by HPLC and its HIV inhibitory activity was assessed using TZM-bl cells as described in the methods section.
Viral particles were collected in tissue culture medium that was centrifugated at 2000×g for 20 min at 4 °C to remove cell debris. […] Infected TZM-bl cells were stained using a solution containing 4 µM potassium ferrocyanide, 4 µM potassium ferricyanide, 2 µM magnesium chloride, 0.4 mg/ml X-gal[55],[56] and stained cells counted. TZM-bl cells were cultured at 37 °C 10% CO2 in TZM-bl medium (Dulbecco’s Modified Eagle Medium (Sigma) supplemented with 10% heat-inactivated fetal bovine serum, 25 mM HEPES, 500 units/ml penicillin, 50 µg/ml streptomycin and 2 mM L-glutamine (Cellgro)), and regularly checked for morphology by microscope.
Cells were regularly checked for morphology by microscopy. […] Luciferase activity was measured with a SpectraMax M3 Spectrometer (Molecular Devices, Sunnyvale, CA) and the results normalized to the luciferase activity of cells infected with HIV in the absence of DTG and expressed as a percentage of decrease in luciferase activity. Activity was measured in 3 independent experiments, each dilution measured in quadruplicate.

`CC(C)OC(=O)OCOP(=O)(CO[C@H](C)Cn1cnc2c(N)ncnc21)OCOC(=O)OC(C)C` [TenofovirDisoproxil Fumarate]: the IC90 with HIV-1 was 0.00554 µg/mL. The solubility at 24 h in series [1] (N-methyl-2-pyrrolidone (NMP)) worked out at 156 ± 2 mg/mL.
For `COC(=O)N[C@H](C(=O)N[C@@H](Cc1ccccc1)[C@@H](O)CN(Cc1ccc(-c2ccccn2)cc1)NC(=O)[C@@H](NC(=O)OC)C(C)(C)C)C(C)(C)C` [Atazanavir], in the series on HIV-1, the “Protein-adjusted IC90 (PA-IC90)” value was 0.014 µg/mL. Also, in series [1] (N-methyl-2-pyrrolidone (NMP)), the solubility at 24 h was found to be 328 ± 2 mg/mL (≈ 465 mM). In series [2], the pKa is listed as 4.3 and the LogP is 4.5.
For `O=C1Nc2ccc(Cl)cc2[C@@](C#CC2CC2)(C(F)(F)F)O1` [Efavirenz], the solubility at 24 h in series [1] (N-methyl-2-pyrrolidone (NMP)) was determined as 118 ± 2 mg/mL (≈ 374 mM). Also, the LogP in series [2] was 4.6.
Turning to `Cc1cc(C#N)cc(C)c1Oc1nc(Nc2ccc(C#N)cc2)nc(N)c1Br` [Etravirine], in the series with HIV-1, the IC90 is 0.0013 µg/mL (≈ 2.99e-06 mM). For the same compound, the solubility at 24 h in series [1] (N-methyl-2-pyrrolidone (NMP)) was 122 ± 2 mg/mL (≈ 280 mM). For the same compound, in series [2], the pKa is on record as 3.75 and the LogP was 5.54.
`Cc1cc(/C=C/C#N)cc(C)c1Nc1ccnc(Nc2ccc(C#N)cc2)n1` [Rilpivirine]: in the series with HIV-1, the IC90 was 0.0125 µg/mL (≈ 3.41e-05 mM) and the “Protein-adjusted IC90 (PA-IC90)” value is 0.012 µg/mL. In series [1] (N-methyl-2-pyrrolidone (NMP)), the solubility at 24 h was found to be 228 ± 5 mg/mL (≈ 622 mM). In addition, in series [2], the LogP is reported as 4.86.
Regarding `Cc1cn([C@H]2C=C[C@@H](CO)O2)c(=O)[nH]c1=O` [Stavudine], the IC90 in the series on HIV-1 was 0.03 to 0.3 µg/mL. The solubility at 24 h in series [1] (N-methyl-2-pyrrolidone (NMP)) is 248 ± 3 mg/mL (≈ 1110 mM). Also, in series [2], the pKa is on record as 10.26 and the log partition coefficient (LogP) is -0.7.
Take `C[C@@H]1CCO[C@H]2Cn3cc(C(=O)NCc4ccc(F)cc4F)c(=O)c(O)c3C(=O)N12` [Dolutegravir]: the “Solubility in PBS + 2% solutol relative to PBS with no solutol” value in series [3] (37 °C) is ~ 6 fold. Besides, the solubility in series [3] (PBS + 2% solutol, pH 7.4, aqueous with cosolvent or surfactant or cyclodextrin, thermodynamic from solid, 37 °C) was 0.564 ± 0.0036 mg/mL; in series [3] (PBS with no solutol, 37 °C, read-out: Solubility in PBS with no solutol), 0.091 mg/mL (≈ 0.217 mM). For the same compound, the “in vitro protein-adjusted IC90 for HIV-1” value in the series with HIV-1 is 0.064 µg/mL. The solubility at 24 h in series [1] (N-methyl-2-pyrrolidone (NMP)) amounted to 255 ± 4 mg/mL (≈ 608 mM). Moreover, the LogP in series [2] is on record as 2.2. In addition, in the series on HIV-1JR-CSF, the IC50 came to 0.0021 µg/mL (≈ 5.01e-06 mM).
Take `Cc1ccnc2c1NC(=O)c1cccnc1N2C1CC1` [Nevirapine]: the IC90 in the series with HIV-1 is 0.04 µg/mL (≈ 0.00015 mM). Further, in series [2], the pKa is 2.8 and the LogP is reported as 2.5.
`Nc1ccn([C@@H]2CS[C@H](CO)O2)c(=O)n1` [Lamivudine]: the solubility at 24 h in series [1] (N-methyl-2-pyrrolidone (NMP)) was found to be 250 ± 3 mg/mL (≈ 1090 mM).
`Cc1nnc(C(=O)NC(C)(C)c2nc(C(=O)NCc3ccc(F)cc3)c(O)c(=O)n2C)o1` [Raltegravir]: in the series with HIV-1, the IC90 was 0.00053 µg/mL (≈ 1.19e-06 mM). In series [1] (N-methyl-2-pyrrolidone), the solubility at 24 h came out at 54 ± 2 mg/mL (≈ 122 mM). For the same compound, in series [2], the pKa is 6.3 and the LogP is given as -0.39.
In the case of `CC(C)CN(C[C@@H](O)[C@H](Cc1ccccc1)NC(=O)O[C@H]1CO[C@H]2OCC[C@H]21)S(=O)(=O)c1ccc(N)cc1` [Darunavir], in the series on HIV-1, the IC90 is 0.00243 µg/mL (≈ 4.44e-06 mM) and the “Protein-adjusted IC90 (PA-IC90)” value was 0.0024 µg/mL. Besides, the solubility at 24 h in series [1] (N-methyl-2-pyrrolidone) is 511 ± 2 mg/mL (≈ 933 mM).
With `CC(C)c1nc(CN(C)C(=O)N[C@H](C(=O)N[C@@H](Cc2ccccc2)C[C@H](O)[C@H](Cc2ccccc2)NC(=O)OCc2cncs2)C(C)C)cs1` [Ritonavir], the IC90 with HIV-1 is 2.1 µg/mL (≈ 0.00291 mM).
On to `CCN1C[C@H](C)n2c(c(O)c3c(=O)n(Cc4ccc(F)c(Cl)c4)nc(C(=O)NC)c32)C1=O` [MK-2048], for which the Solubility in water in series [4] is under 0.1 mg/mL. For the same compound, the “Solubility in PBS + 2% solutol relative to PBS with no solutol” value in series [3] (pH 7.4) is listed as ~ 9 fold. In the series on HIV-1 (against HIV-1), the “in vitro 90% inhibitory concentration (IC90)” value is on record as ~ 0.033 μg/mL. Further, the “Protein-adjusted IC90 (PA-IC90)” value in the series on HIV-1 was 0.033 µg/mL. In addition, the “Saturation solubility in NMP” value in series [1] (N-methyl-2-pyrrolidone) is recorded as 715 ± 5 mg/mL.
As for `Nc1nc(=O)n([C@@H]2CS[C@H](CO)O2)cc1F` [Emtricitabine], in the series on HIV-1, the IC90 was 0.051 µg/mL (≈ 0.000206 mM). In addition, the solubility at 24 h in series [1] (N-methyl-2-pyrrolidone (NMP)) turned out to be 202 ± 3 mg/mL (≈ 817 mM).

Usually IC90 stands for the concentration at which the effect reaches the 90% level. As usually defined, the solubility is the concentration that dissolves in the medium under given conditions. What is called pKa is the pH at which an ionisable group is half protonated. Usually LogP stands for a log measure of how a compound divides between an organic and an aqueous phase.
